Experimental data from US20240109934A1, “ANTIBIOTICS WITH IMPROVED DRUG RESISTANCE PROFILE” (priority 2021, published 2024).
Converted amounts (≈) assume the structure as drawn. “Also recorded” adds a separate entry of the source.

Legend:
E. faecium ATCC 19434 = experiment: MIC against sensitive E. faecium strain; format: cell-based; settings: Enterococcus faecium, ATCC19434; sensitive strain E. faecium ATCC 19434
S. aureus (FA-32×-B) = experiment: Neutropenic thigh infection burden study, FA-resistant strain; format: in vivo; settings: neutropenic CD-1 mice, FA-resistant strain (P406L), 50 mg/kg IP at 1, 2, 3 h, burden at 8 h
S. aureus ATCC 29213 [1] = experiment: MIC by micro-dilution broth method (CLSI); format: cell-based
S. aureus ATCC 29213 [2] = experiment: Neutropenic thigh infection burden study, sensitive strain; format: in vivo; settings: neutropenic CD-1 mice, 50 mg/kg IP at 1, 2, 3 h post infection, burden at 24 h
[3] = Pharmacokinetic assessment in mice; format: in vivo, C57BL/6 mice; settings: female, C57BL/6, mouse, in vivo, ip, 50 mg/kg
Procedure: FIG. 3. A). Pharmacokinetic analysis of fusidic acid and FA-CP. […] The data are illustrated as the mean and represent the average of three independent experiments. The pharmacokinetic parameters illustrated above were calculated with a one-compartment model using a non-linear regression program (Phoenix WinNonlin Version 8.1, Certara USA Inc. Princeton NJ 08540 USA). B). S. aureus ATCC 29213 neutropenic thigh infection burden study. CD-1 mice were first rendered neutropenic with cyclophosphamide. Mice were injected on (Day-4 to Day-2) with 150 mg/kg and on (Day-1) with 100 mg/kg of cyclophosphamide, respectively. […] C). S. aureus (FA-32×-B) neutropenic thigh infection study. CD-1 mice were first rendered neutropenic with cyclophosphamide as described above. […] Drugs were formulated with 5% DMSO, 10% Tween 20, 85% PBS immediately before injection. The data shown as means±s.d. and statistical significance was determined by one-way ANOVA with Tukey's multiple comparisons. NS indicates not significant (P>0.05), **P<0.01, ****P<0.0001.
Pharmacokinetic Assessment of sodium fusidate and FA-CP (25). […] The compounds were formulated in 5% DMSO, 10% Tween 20, and 85% PBS. Mice were treated with sodium fusidate or FA-CP (25) (50 mg/kg) via intraperitoneal injection with three mice per time point (15, 30, 45, 60, 120, and 240 min). At specific time points, mice were sacrificed, blood was collected and centrifuged, and the serum was frozen at −80° C. until analysis. The proteins in a 10 μL aliquot of serum were precipitated by the addition of 50 μL acetonitrile with the addition of 10 μL of 1.6 ug/mL internal standard (sodium fusidate was the internal standard when measuring FA-CP (25) and FA-CP (25) was the internal standard when measuring sodium fusidate). The sample was then vortexed and centrifuged to remove the proteins. Supernatants were analyzed with the QTRAP 5500 LC/MS/MS system (Sciex) in the Metabolomics Laboratory of the Roy J. Carver Biotechnology center, University of Illinois at Urbana-Champaign. Software Analyst 1.6.2 was used for data acquisition and analysis. The 1200 Series HPLC System (Agilent Technologies) includes a degasser, an autosampler and a binary pump. The liquid chromatography separation was performed on an Agilent Zorbax SB-Aq column (4.6 mm×50 mm; 5 μm) with mobile phase A (0.1% formic acid in water) and mobile phase B (0.1% formic acid in acetonitrile). The flow rate was 0.3 mL/min. The linear gradient was as follows: 0-1 min: 95% A; 8-13 min: 0% A; 8.1-18.5 min: 95% A. The autosampler was set at 10° C. The injection volume was 5 μL. Mass spectra were acquired under negative electrospray ionization with a voltage of −4,500 V. The source temperature was 450° C. The curtain gas, ion source gas 1 and ion source gas 2 were 32, 60 and 60 psi, respectively. […] The limit of quantitation of (S/N=10) was 1 nM. Pharmacokinetic parameters were calculated with a one-compartment model using a nonlinear regression program (Phoenix WinNonlin Version 8.1; Certara USA).

[4] = system: multidrug-resistant clinical isolates of S. aureus; experiment: MIC against multidrug-resistant clinical isolates of S. aureus; format: cell-based; settings: for MIC: Staphylococcus aureus
[5] = system: multidrug-resistant clinical isolates of E. faecium; experiment: MIC against multidrug-resistant clinical isolates of E. faecium; format: cell-based; settings: for MIC: Enterococcus faecium
S. aureus ATCC BAA-1721 = experiment: MIC against strain possessing the fusC gene; format: cell-based; settings: Staphylococcus aureus, ATCCBAA1721

Question: Which results are given for `CC(=O)O[C@H]1C[C@@]2(C)[C@@H](C[C@@H](O)[C@H]3[C@@]4(C)CC[C@@H](O)[C@@H](C)[C@@H]4CC[C@@]32C)/C1=C(\CCC=C1CCCC1)C(=O)O` [FA-CP, (Z)-2-((3R,4S,5S,8S,9S,10S,11R,13R,14S,16S)-16-acetoxy-3,11-dihydroxy-4,8,10,14-tetramethylhexadecahydro-17H-cyclopenta[a]phenanthren-17-ylidene)-5-cyclopentylidenepentanoic acid]?
Answer: MIC (E. faecium ATCC 19434): 2 µg/mL (≈ 3.68 µM); Bacterial burden in thigh (S. aureus (FA-32×-B)): reductions in bacterial burden; also recorded: in vivo efficacy; Antibacterial activity relative to FA (S. aureus ATCC 29213 [1]; S. aureus ATCC 29213 MIC): equipotent activity to FA; MIC (S. aureus ATCC 29213 [1]; Staphylococcus aureus, ATCC29213, read-out: MIC Without Human Serum): 0.125 µg/mL (≈ 0.23 µM); Bacterial burden in thigh (S. aureus ATCC 29213 [2]): Significant reductions in bacterial burden; AUC [3]: 11700 ng·h/mL; CL_F [3]: 71.3 mL/min/kg; Cmax [3]: 9760 ng/mL; K10_HL [3]: 19.0 min; Tmax [3]: 26.4 min; Cross-resistance with vancomycin ([4]; 29 clinical isolates of S. aureus): no cross-resistance with vancomycin; MIC ([4]; NRS3, S. aureus NRS3 (NARSA)): 0.0625 µg/mL (≈ 0.115 µM); MIC ([4]; NRS4, S. aureus NRS4 (NARSA)): 0.0625 µg/mL (≈ 0.115 µM); MIC ([4]; NRS17, S. aureus NRS17 (NARSA)): 0.0625 µg/mL (≈ 0.115 µM); MIC ([4]; NRS18, S. aureus NRS18 (NARSA)): 0.125 µg/mL (≈ 0.23 µM); MIC ([4]; NRS21, S. aureus NRS21 (NARSA)): 0.0625 µg/mL (≈ 0.115 µM); MIC ([4]; NRS22, S. aureus NRS22 (NARSA)): 0.0625 µg/mL (≈ 0.115 µM); MIC ([4]; NRS23, S. aureus NRS23 (NARSA)): 0.125 µg/mL (≈ 0.23 µM); MIC ([4]; NRS24, S. aureus NRS24 (NARSA)): 0.0625 µg/mL (≈ 0.115 µM); MIC ([4]; NRS26, S. aureus NRS26 (NARSA)): 0.0625 µg/mL (≈ 0.115 µM); MIC ([4]; NRS27, S. aureus NRS27 (NARSA)): 0.125 µg/mL (≈ 0.23 µM); MIC ([4]; NRS29, S. aureus NRS29 (NARSA)): 0.125 µg/mL (≈ 0.23 µM); MIC ([4]; NRS51, S. aureus NRS51 (NARSA)): 0.0625 µg/mL (≈ 0.115 µM); MIC ([4]; NRS68, S. aureus NRS68 (NARSA)): 0.125 µg/mL (≈ 0.23 µM); MIC ([4]; NRS73, S. aureus NRS73 (NARSA)): 0.125 µg/mL (≈ 0.23 µM); MIC ([4]; NRS74, S. aureus NRS74 (NARSA)): 0.125 µg/mL (≈ 0.23 µM); MIC ([4]; NRS76, S. aureus NRS76 (NARSA)): 0.125 µg/mL (≈ 0.23 µM); MIC ([4]; NRS77, S. aureus NRS77 (NARSA), no noted resistance): 0.0625 µg/mL (≈ 0.115 µM); MIC ([4]; NRS382, S. aureus NRS382 (NARSA)): 0.0625 µg/mL (≈ 0.115 µM); MIC ([4]; NRS383, S. aureus NRS383 (NARSA)): 0.125 µg/mL (≈ 0.23 µM); MIC ([4]; NRS384, S. aureus NRS384 (NARSA)): 0.125 µg/mL (≈ 0.23 µM); MIC ([4]; S. aureus AR0561 (CDC)): 0.125 µg/mL (≈ 0.23 µM); MIC ([4]; S. aureus AR0562 (CDC)): 0.125 µg/mL (≈ 0.23 µM); MIC ([4]; S. aureus AR0563 (CDC)): 0.125 µg/mL (≈ 0.23 µM); MIC ([4]; S. aureus AR0564 (CDC)): 0.125 µg/mL (≈ 0.23 µM); MIC ([4]; S. aureus AR0565 (CDC)): 0.0625 µg/mL (≈ 0.115 µM); MIC ([4]; S. aureus AR0566 (CDC)): 0.125 µg/mL (≈ 0.23 µM); MIC ([4]; S. aureus AR0567 (CDC)): 0.125 µg/mL (≈ 0.23 µM); MIC ([4]; S. aureus AR0568 (CDC)): 0.125 µg/mL (≈ 0.23 µM); MIC ([4]; S. aureus AR0570 (CDC)): 0.125 µg/mL (≈ 0.23 µM); Cross-resistance with vancomycin ([5]; E. faecium clinical isolates): no cross-resistance with vancomycin; MIC ([5]; E. faecium AR0572 (CDC)): 4 µg/mL (≈ 7.37 µM); MIC ([5]; E. faecium AR0574 (CDC)): 2 µg/mL (≈ 3.68 µM); MIC ([5]; E. faecium AR0575 (CDC)): 2 µg/mL (≈ 3.68 µM); MIC ([5]; E. faecium AR0576 (CDC)): 4 µg/mL (≈ 7.37 µM); MIC ([5]; E. faecium AR0578 (CDC)): 2 µg/mL (≈ 3.68 µM); MIC ([5]; E. faecium AR0579 (CDC)): 1 µg/mL (≈ 1.84 µM); MIC (S. aureus ATCC BAA-1721): 8 µg/mL (≈ 14.7 µM)
